Assay [1] relates to Haemophilus influenzae C.L. Nature of the assay: MIC, standard agar-dilution assay. It is filed as cell-based. As to conditions: Ampicillin-sensitive strain, read-out: MIC.
The next assay has as its system Staphylococcus aureus. The assay is described as follows: Experimental bacterial infection in mice, ED50. Format: in vivo. To be noted: Staphylococcus aureus, po, two doses, dose protecting 50% of animals, read-out: Oral ED50. Here is the method: (§1) The new derivatives of this invention have also shown in vivo antimicrobial activity against experimental bacterial infections. When two doses of test compound were administered to mice in experimental infections, the activity observed was measured as an EDso value [effective dose in mg/kg to protect 50% of the test animals: see Warren Wick, et al., J. Bacteriol. 81, 233-235 (1961)].

In the next assay the test system is Streptococcus pyogenes. Nature of the assay: Experimental bacterial infection in mice, ED50. Format: in vivo. To be noted: Streptococcus pyogenes, po, two doses, dose protecting 50% of animals, read-out: Oral ED50. Here is the method:
as §1

The next assay concerns Streptococcus pneumoniae. Nature of the assay: Experimental bacterial infection in mice, ED50. It is filed as in vivo. To be noted: Streptococcus pneumoniae, po, two doses, dose protecting 50% of animals, read-out: Oral ED50. Here is the method: as §1
The subject of assay [2] is Streptococcus pyogenes C203. Nature of the assay: MIC, standard agar-dilution assay. It is filed as cell-based. As to conditions: read-out: MIC.
For assay [3], the system named is Staphylococcus aureus S13E. Nature of the assay: MIC, standard agar-dilution assay. Format: cell-based.
In assay [4] the test system is Streptococcus sp. group D 2041. The assay is described as follows: MIC, standard agar-dilution assay. It is filed as cell-based. To be noted: read-out: MIC.
In assay [5] the test system is Streptococcus sp. group D X66. Nature of the assay: MIC, standard agar-dilution assay. It is filed as cell-based.
The subject of assay [6] is Staphylococcus aureus V41. Nature of the assay: MIC, standard agar-dilution assay. It is filed as cell-based. As to conditions: Staphylococcus aureus V41, Penicillin-resistant strain, inducibly-resistant to erythromycin; read-out: MIC. The text has this: (§2) In addition to excellent in vitro activity against erythromycin-sensitive bacteria, several members of this new series have shown in vitro activity against erythromycin-resistant strains. These include strains which are inducibly-resistant to erythromycin (S.. aureus V41 and X400 and S. epidermidis EPI1) and even strains which are constitutively-resistant (S. epidermidis 270).

In assay [7] the test system is Staphylococcus aureus X400. The assay is described as follows: MIC, standard agar-dilution assay. Format: cell-based. To be noted: Staphylococcus aureus X400, Methicillin-resistant strain, inducibly-resistant to erythromycin; read-out: MIC.
Source text: as §2

Assay [8] has as its system Staphylococcus epidermidis 222. Nature of the assay: MIC, standard agar-dilution assay. Format: cell-based. As to conditions: read-out: MIC.
For assay [9], the system named is Haemophilus influenzae 76. Nature of the assay: MIC, standard agar-dilution assay. Format: cell-based. As to conditions: Haemophilus influenzae 76, Ampicillin-resistant strain; read-out: MIC.
The next assay relates to Escherichia coli EC14. Nature of the assay: MIC, standard agar-dilution assay. Format: cell-based. To be noted: read-out: MIC.
Assay [10] concerns Staphylococcus aureus X1.1. Nature of the assay: MIC, standard agar-dilution assay. Format: cell-based. To be noted: read-out: MIC.
Assay [11] has as its system Klebsiella pneumoniae X68. Nature of the assay: MIC, standard agar-dilution assay. Format: cell-based. As to conditions: read-out: MIC.
Assay [12] relates to Streptococcus pneumoniae Park I. The assay is described as follows: MIC, standard agar-dilution assay. To be noted: read-out: MIC. Format: cell-based.
Where [13] appears, read: Streptococcus sp. group D X66, read-out: MIC.

≈ marks a conversion by molar mass, not a printed value. Read-outs that look alike come from different tables or passages of the source. A value given as a limit tells only on which side of the number the result lay.

As to `CC[C@H]1OC(=O)[C@H](C)[C@@H](O[C@H]2C[C@@](C)(OC)[C@@H](O)[C@H](C)O2)[C@H](C)[C@@H](O[C@@H]2O[C@H](C)C[C@H](N(C)C)[C@H]2O)[C@](C)(O)C[C@@H](C)[C@H](NC)[C@H](C)[C@@H](O)[C@]1(C)O` [Compound 1, 9-Deoxo-9-(methylamino)erythromycin], the MIC in assay [1] was determined as 0.5 mg/L (≈ 0.668 µM); in assay [2] it was 0.06 mg/L (≈ 0.0801 µM); in assay [3], 0.125 mg/L (≈ 0.167 µM); in assay [4] it was 1 mg/L (≈ 1.34 µM); in assay [5] (Streptococcus), 0.125 mg/L (≈ 0.167 µM); in assay [6] it was 64 mg/L (≈ 85.4 µM). The MIC in assay [7] was found to be 64 mg/L (≈ 85.4 µM); in assay [8] it was 0.25 mg/L (≈ 0.334 µM); in assay [9], 1 mg/L (≈ 1.34 µM); in the assay on Escherichia coli EC14 it was 32 mg/L (≈ 42.7 µM); in assay [10], 1 mg/L (≈ 1.34 µM); in [11] it was 64 mg/L (≈ 85.4 µM). Also, the 50% effective dose (ED50) – broadly, the midpoint of the dose-response relation – with Staphylococcus aureus is 43.8 mg/kg; in the assay on Streptococcus pyogenes, 21 mg/kg; with Streptococcus pneumoniae, 35.4 mg/kg.
With `CCCCCCCCCCCCN[C@@H]1[C@H](C)[C@@H](O)[C@](C)(O)[C@@H](CC)OC(=O)[C@H](C)[C@@H](O[C@H]2C[C@@](C)(OC)[C@@H](O)[C@H](C)O2)[C@H](C)[C@@H](O[C@@H]2O[C@H](C)C[C@H](N(C)C)[C@H]2O)[C@](C)(O)C[C@H]1C` [Compound 10, 9-Deoxo-9-(n-dodecylamino)erythromycin], the MIC was 8 mg/L (≈ 8.86 µM) in assay [1]; 0.5 mg/L (≈ 0.554 µM) in assay [2]; 2 mg/L (≈ 2.21 µM) in assay [3]; 8 mg/L (≈ 8.86 µM) in [4]; 1 mg/L (≈ 1.11 µM) in [5] (setting [13]); 8 mg/L (≈ 8.86 µM) in assay [6]. The MIC in assay [7] came out at 8 mg/L (≈ 8.86 µM); in assay [8], 4 mg/L (≈ 4.43 µM); in [12] it was 0.06 mg/L (≈ 0.0664 µM); in assay [9], 4 mg/L (≈ 4.43 µM); in assay [10] it was 4 mg/L (≈ 4.43 µM). Moreover, the ED50 was over 45 mg/kg in the assay on Staphylococcus aureus, over 50 mg/kg with Streptococcus pyogenes and over 50 mg/kg in the assay on Streptococcus pneumoniae.
On to `CC[C@H]1OC(=O)[C@H](C)[C@@H](O[C@H]2C[C@@](C)(OC)[C@@H](O)[C@H](C)O2)[C@H](C)[C@@H](O[C@@H]2O[C@H](C)C[C@H](N(C)C)[C@H]2O)[C@](C)(O)C[C@@H](C)[C@H](NCC2CCCCCCC2)[C@H](C)[C@@H](O)[C@]1(C)O` [Compound 16, 9-Deoxo-9-[(cyclooctylmethyl)amino]erythromycin], for which the MIC was 1 mg/L (≈ 1.16 µM) in assay [1]; under 0.008 mg/L in [2]; 0.06 mg/L (≈ 0.0698 µM) in [3]; 1 mg/L (≈ 1.16 µM) in [4]; under 0.008 mg/L in assay [5] (setting [13]); 64 mg/L (≈ 74.5 µM) in assay [6]. Further, the MIC was 64 mg/L (≈ 74.5 µM) in [7]; 0.25 mg/L (≈ 0.291 µM) in assay [8]; 1 mg/L (≈ 1.16 µM) in assay [9]; 64 mg/L (≈ 74.5 µM) in the assay on Escherichia coli EC14; 0.5 mg/L (≈ 0.582 µM) in assay [10].
Consider `CC[C@H]1OC(=O)[C@H](C)[C@@H](O[C@H]2C[C@@](C)(OC)[C@@H](O)[C@H](C)O2)[C@H](C)[C@@H](O[C@@H]2O[C@H](C)C[C@H](N(C)C)[C@H]2O)[C@](C)(O)C[C@@H](C)[C@H](NCCC(C)CCCC(C)(C)OC)[C@H](C)[C@@H](O)[C@]1(C)O` (stereo partly drawn) [Compound 24, 9-Deoxo-9-[(7-methoxy-3,7-dimethyloctyl)amino]erythromycin], for which the MIC in [1] came out at 1 mg/L (≈ 1.1 µM); in [2], 0.015 mg/L (≈ 0.0166 µM); in [3] it was 0.25 mg/L (≈ 0.276 µM); in assay [4], 2 mg/L (≈ 2.21 µM); in assay [5] (setting [13]) it was 0.03 mg/L (≈ 0.0331 µM); in assay [6], 64 mg/L (≈ 70.7 µM). Further, the MIC in [7] amounted to 64 mg/L (≈ 70.7 µM); in [8] it was 0.25 mg/L (≈ 0.276 µM); in assay [9] it was 2 mg/L (≈ 2.21 µM); with Escherichia coli EC14, 128 mg/L (≈ 141 µM); in assay [10], 0.5 mg/L (≈ 0.552 µM). In addition, the figures for the median effective dose (ED50) with Staphylococcus aureus, in the assay with Streptococcus pyogenes and with Streptococcus pneumoniae were over 45.6 mg/kg, 25 mg/kg and 23.6 mg/kg, respectively.

For the origin of these results see EP0238178B1, “Novel derivatives of erythromycylamine” (ELI LILLY AND COMPANY, priority 1986, dated 1987).
